Results as given in paper PMC10237672, “Design and synthesis of novel anti-urease imidazothiazole derivatives with promising antibacterial activity against Helicobacter pylori” (PLOS ONE, 2023).
≈ marks a conversion by molar mass, not a printed value. Entries after “also recorded” stand apart in the source; their conditions may differ. Like-named read-outs stand apart in the source and are kept apart here.

Columns and labels:
H. pylori [1] = experiment: IC50 against H. pylori, micro broth dilution test; assay type: cell-based, Helicobacter pylori; conditions: H. pylori ATCC 43504, micro broth dilution, 72 h, OD 600 nm, read-out: IC50 value against H. pylori ± SEM
E. coli [2] = experiment: IC50 against E. coli (urease negative), micro broth dilution method; assay type: cell-based, Escherichia coli; conditions: E. coli ATCC 25922, micro broth dilution
Procedure: (§1) The H. pylori reference strain ATCC 43504 (DSM 21031) was purchased from the German collection of microorganisms and cell cultures, GmbH (DSMZ; Germany). H. pylori was grown on Brucella agar plates (Sigma, USA) supplemented with 10% horse serum (Sigma, USA) for 72 h at 37 °C under 98% humidity and microaerophilic conditions (5% O2, 10% CO2, and 85% N2) using microaerophilic CampyGen 2.5 L pack (Oxoid, thermo scientific, UK) and anaerobic jar (Biomerieux, France). H. pylori culture was inspected after 3 to 5 days. The E. coli reference strain ATCC 25922 was purchased from the American Type Culture Collection (ATCC, Manassas, VA, USA). E. coli was grown on nutrient agar plates (Sigma, USA) for 24 h at 37 °C under aerobic conditions. Bacterial load was adjusted using a DensiCHEK PLUS device (Biomerieux, France). A regular gram stain (Biomerieux, France) was performed to confirm the identity and the morphology of H. pylori and E. coli as well as to confirm the absence of any contamination. Furthermore, a regular spotting checkup was also performed behind the micro broth dilution testing followed by a gram stain to confirm the identity of the bacteria and the absence of any potential contamination.
(§2) For MIC, the agar dilution method was performed as per the CLSI guidelines. 5 μL of the H. pylori suspension (2.0 McFarland) was plated on the Mueller–Hinton agar (Sigma, USA) supplemented with 10% horse serum including various concentrations of compounds 1a-1j and 2a-2j (0.8 mM, 0.4 mM, 0.2 mM, 0.1 mM, 0.05 mM, 0.025 mM, 0.0125 mM, and 0.006 mM). […] For the micro broth dilution test, compounds 1a-1j and 2a-2j were prepared by 2-fold serial dilution from a concentration of 0.8 mM to 0.006 mM and added to an equal H. pylori suspension of 1.0 McFarland in Mueller–Hinton broth (Sigma, USA) for 72 h. Final optical density of the bacterial suspension was measured by spectrophotometry using Synergy H1 microplate reader (BioTek, USA) at 600 nm. The half maximal inhibitory concentration (IC50) was calculated using Graph Pad Prism 8.02 for windows (Graph Pad Inc., La Jolla, CA, USA). All the tested derivatives compounds were dissolved in dimethyl sulfoxide (DMSO, Sigma, USA). […] Amoxicillin (Sigma, USA) (10 μg/mL and 0.007 μg/mL) and (12 μg/mL and 3 μg/mL) was used as a control antibiotic to confirm the agar dilution protocol for H. pylori and E. coli, respectively. Acetohydroxamic acid (AHA, Sigma, CAS number: 546-88-3) was used as a positive anti-urease control. All antimicrobial susceptibility experiments were repeated twice.

AGS gastric cells = experiment: Cytotoxicity MTT assay against AGS gastric cells; assay type: cell-based, Human; conditions: for IC50: MTT, 48 h treatment, read-out: IC50 value against AGS cells ± SEM; for Selectivity index (SI): toward H. pylori vis-à-vis AGS cells (IC50 values)
Procedure: Human gastric adenocarcinoma AGS cells (ATCC CRL-1739) were purchased from the German Cell Lines Service (CLS, Germany) and cultured in RPMI-1640 medium (Sigma, USA) supplemented with 10% fetal bovine serum (FBS, Sigma, USA) and streptomycin-penicillin (100 μg/mL and 100 IU/mL) (Sigma, USA). Cells were incubated at 37 °C in a humidified atmosphere with 5% CO2 until 80–90% confluency.
The (4, 5-dimethythiazol-2-yl) -2, 5-diphenyltetrazolium bromide (MTT, Sigma, USA) assay was used to assess the cytotoxicity of the five most significant compounds. AGS cells (5×10^3/well) were seeded in 96-well plates for 24 h and treated with various concentrations (0.8 mM, 0.4 mM, 0.2 mM, 0.1 mM, 0.05 mM, 0.025 mM, 0.0125 mM, and 0.006 mM) of the five most significant anti-urease imidazothiazole derivatives compounds (compound 1a, 1d, 1h, 2d, and 2f). After 48 h treatment, 100 μL of MTT solution (50 μg/mL) was added to each well, and the cells were incubated for additional 2 h at 37 °C. The solubilization of MTT crystals was accomplished by adding 100 μL of DMSO followed by 10 min of incubation. The plates were shaken for 5 min to dissolve the MTT formazan crystals. The optical density of each well was determined using a Synergy H1 microplate reader (Biotek, USA) at a wavelength of 570 nm. The IC50 of the tested compounds was calculated using GraphPad Prism 8.0.2 for windows (GraphPad Inc., La Jolla, CA, USA) from two repeated experiments.

H. pylori [3] = experiment: MIC against H. pylori, agar dilution method; assay type: cell-based, Helicobacter pylori; conditions: for MIC: Helicobacter pylori, ATCC43504, read-out: MIC value against H. pylori ± SEM; for antibacterial activity against H. pylori (in words): compared within the series and with acetohydroxamic acid
E. coli [4] = experiment: MIC against E. coli (urease negative), agar dilution method; assay type: cell-based, Escherichia coli; conditions: for MIC: Escherichia coli, ATCC25922, read-out: MIC ± SEM against E. coli (Urease-)
Procedure: as §1, §2

Jack bean urease = target: T1, Jack bean urease (Canavalia ensiformis, UniProt P07374); experiment: biochemical; assay type: biochemical
T1 construct: purchased Sigma Aldrich
Procedure: Reaction mixture comprising 40 μL of buffer (K2HPO4: 10 mmol/L, urea: 100 mmol/L, […]: 10 mmol/L, EDTA: 1 /L mmol, pH = 8.2) and 5 U/mL enzyme (10 μL) were pre-incubated with 10 μL of synthesized compounds (1 mM) and substrate urea (1 mM) were incubated at room temperature in 96 well plate for half an hour. After the incubation at room temperature, absorbance was taken at specific wavelength (630 nm) employing a microplate reader (Bio-Tek, USA) with R1 and R2 reagents in each well. The reactions were measured in triplicate fashion. To calculate the inhibition percentage following equation was used.
Percentage inhibition = 100 –[tested compound/control compound] × 100.

Caco-2 A-B permeability = assay type: in vitro ADME; conditions: human, pH 6.5–7.4, test concentration = MIC against H. pylori (19-50 μM), reference drugs 10 μM
Procedure: (§3) The apparent permeability coefficient (Papp) of the test compound was calculated as follows: Papp(cm/s)=VR*CR,end/Δt*1/A*(CD,mid‐CR,mid) where VR is the volume of the receiver chamber. CR,end is the concentration of the test compound in the receiver chamber at the end time point, Δt is the incubation time and A is the surface area of the cell monolayer. CD,mid is the calculated mid-point concentration of the test compound in the donor side, which is the mean value of the donor concentration at time 0 minute and the donor concentration at the end time point. CR,mid is the mid-point concentration of the test compound in the receiver side, which is one half of the receiver concentration at the end time point. Concentrations of the test compound were expressed as peak areas of the test compound.
(§4) The recovery of the test compound was calculated as follows: Recovery(%)=VD*CD,end+VR*CR,end/VD*CD0*100 where VD and VR are the volumes of the donor and receiver chambers, respectively. CD,end is the concentration of the test compound in the donor sample at the end time point. CR,end is the concentration of the test compound in the receiver sample at the end time point. CD0 is the concentration of the test compound in the donor sample at time zero. Concentrations of the test compound are expressed as peak areas of the test compound.
(§5) Fluorescein was used as the cell monolayer integrity marker. Fluorescein permeability assessment (in the A-B direction at pH 7.4 on both sides) was executed after the permeability assay for the test compound.

Caco-2 cells = experiment: Caco-2 A-B permeability; assay type: in vitro ADME
Procedure: as §3, §4, §5

[5] = H. pylori ATCC 43504, agar dilution
[6] = E. coli ATCC 25922, agar dilution

T1 sequence (P07374 whole entry, looked up): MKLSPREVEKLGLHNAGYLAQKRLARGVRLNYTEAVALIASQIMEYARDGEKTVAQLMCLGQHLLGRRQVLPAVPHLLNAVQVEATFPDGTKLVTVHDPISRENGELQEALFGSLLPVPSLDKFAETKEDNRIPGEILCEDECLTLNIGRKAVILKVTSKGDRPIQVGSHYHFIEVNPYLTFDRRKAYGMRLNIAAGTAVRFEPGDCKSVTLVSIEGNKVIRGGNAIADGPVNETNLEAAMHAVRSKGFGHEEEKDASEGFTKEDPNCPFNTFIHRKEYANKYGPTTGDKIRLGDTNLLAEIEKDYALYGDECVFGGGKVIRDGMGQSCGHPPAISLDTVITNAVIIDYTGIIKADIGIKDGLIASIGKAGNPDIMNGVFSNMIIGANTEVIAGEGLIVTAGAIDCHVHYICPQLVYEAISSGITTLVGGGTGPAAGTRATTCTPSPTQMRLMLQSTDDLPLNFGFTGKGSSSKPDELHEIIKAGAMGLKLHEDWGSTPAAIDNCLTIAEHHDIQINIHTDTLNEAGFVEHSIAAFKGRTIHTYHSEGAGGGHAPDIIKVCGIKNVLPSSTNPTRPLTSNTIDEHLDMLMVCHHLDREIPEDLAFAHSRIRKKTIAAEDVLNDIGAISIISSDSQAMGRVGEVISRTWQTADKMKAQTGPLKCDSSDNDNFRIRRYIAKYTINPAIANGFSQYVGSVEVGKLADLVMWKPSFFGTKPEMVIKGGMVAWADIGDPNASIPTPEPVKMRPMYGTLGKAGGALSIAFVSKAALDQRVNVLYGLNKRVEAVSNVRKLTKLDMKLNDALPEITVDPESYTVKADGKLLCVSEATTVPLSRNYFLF

SMILES | IC50 (H. pylori [1]) [µM] | IC50 (E. coli [2]; read-out: IC50 ± SEM against E. coli (Urease-)) [µM] | IC50 (AGS gastric cells) [µM] | MIC value against H. pylori ± SEM (H. pylori [3]; [5]) [µM] | MIC ± SEM against E. coli (Urease-) (E. coli [4]; [6]) [µM] | IC50 (H. pylori [1]; Helicobacter pylori, ATCC43504) [µM] | melting point [°C] | IC50 ± SEM against E. coli (Urease-) (E. coli [2]) | IC50 (AGS gastric cells; Homo sapiens, AGS) [µM] | Selectivity index (SI) (AGS gastric cells) | MIC (H. pylori [3]; [5]) [µM] | antibacterial activity against H. pylori (in words) (H. pylori [3]) | IC50 (Jack bean urease) [µM] | MIC (E. coli [4]; [6]) [µM] | Papp (Caco-2 A-B permeability) [×10⁻⁶ cm/s] | recovery (Caco-2 A-B permeability) [%] | activity against urease-negative E. coli (in words) (E. coli [4]; E. coli, up to 0.8 mM) | Caco-2 permeability (in words) (Caco-2 cells)
CC(=O)NO [Acetohydroxamic acid (AHA), Acetohydroxamic acid, reference compound] | 7380 ± 320 | 39900 ± 1780 | 5900 ± 300 | 12500 ± 0 (≈ 938 µg/mL) | 100000 | – | – | – | – | – | – | – | – | – | – | – | – | –
CS(=O)(=O)Oc1cccc(-c2nc3sccn3c2-c2ccccc2)c1 [Compound 1a, 3-(5-Phenylimidazo[2,1-b]thiazol-6-yl)phenyl methanesulfonate] | – | – | – | – | – | 23 ± 9 | 105 to 108 | No effect | 71 ± 17 | 3.09 | 19 ± 4 | strongest antibacterial activity | 4.1 ± 0.03 | > 800 | 18.6 ± 0.79 | 34.4 | – | –
O=S(=O)(Oc1cccc(-c2nc3sccn3c2-c2ccccc2)c1)C1CCCCC1 [Compound 1d, 3-(5-Phenylimidazo[2,1-b]thiazol-6-yl)phenyl cyclohexane-1-sulfonate] | – | – | – | – | – | 20 ± 3 | 118 to 120 | No effect | 121 ± 44 | 6.05 | 31 ± 11 (≈ 13.6 µg/mL) | strongest antibacterial activity | 3.09 ± 0.07 | > 800 | 0.04 ± 0.01 | 63 | did not show activity | lowest permeability; also recorded: poor Caco-2 A-B permeability; also recorded: low permeability
NS(=O)(=O)Oc1cccc(-c2nc3sccn3c2-c2ccccc2)c1 [Compound 1h, 3-(5-Phenylimidazo[2,1-b]thiazol-6-yl)phenyl sulfamate] | – | – | – | – | – | 28 ± 1 | 173 to 175 | No effect | 145 ± 45 | 5.18 | 50 (≈ 18.6 µg/mL) | strongest antibacterial activity | 2.96 ± 0.02 | > 800 | 16.9 ± 0.87 | 32.6 | – | –
CS(=O)(=O)c1cccc(-c2c(-c3cccc(OS(=O)(=O)C4CCCCC4)c3)nc3sccn23)c1 [Compound 2d, 3-(5-(3-(Methylsulfonyl)phenyl)imidazo[2,1-b]thiazol-6-yl)phenyl cyclohexane-1-sulfonate] | – | – | – | – | – | 15 ± 3 | 142 to 144 | No effect | 30 ± 11 | 2.0 | 22 ± 4 (≈ 11.4 µg/mL) | strongest antibacterial activity | 4.46 ± 0.12 | > 800 | 0.07 ± 0.02 | 73.5 | – | lowest permeability; also recorded: low permeability
CS(=O)(=O)c1cccc(-c2c(-c3cccc(OS(=O)(=O)c4ccc(F)cc4)c3)nc3sccn23)c1 [Compound 2f, 3-(5-(3-(Methylsulfonyl)phenyl)imidazo[2,1-b]thiazol-6-yl)phenyl 4-fluorobenzenesulfonate] | – | – | – | – | – | 23 ± 8 | – | No effect | 45 ± 5 | 1.95 | 38 ± 13 (≈ 20.1 µg/mL) | strongest antibacterial activity | 7.19 ± 0.09 | > 800 | 1.98 ± 0.23 | 71.8 | – | lowest permeability; also recorded: low permeability
